Reference: patent publication US8232409B2, “Heterocyclic benzimidazoles as TRPM8 modulators” (Janssen Pharmaceutica N.V., priority 2008, dated 2012)
Structures can show the parent of a compound that is named as a salt.

Experiments:
[1] = tested on: CCI-induced cold hypersensitivity in Sprague Dawley rats; test: Chronic constriction injury (CCI)-induced neuropathic pain, acetone-induced cold hypersensitivity; assay type: in vivo; conditions: po; rat CCI; 10 mg/kg p.o.; 3 h post-dose; read-out: % Inhibition (acetone-evoked paw withdrawals)
Source text: Male Sprague Dawley rats (225-450 g; n=5-8/treatment) were used to evaluate the ability of selected compounds of the Formula (I) to reverse CCI-induced cold hypersensitivity. Four loose ligatures of 4-0 chromic gut were surgically placed around the left sciatic nerve under inhalation anesthesia as described by Bennett et al. (Bennett, G. J.; Xie, Y. K. Pain 1988, 33(1), 87-107). Fourteen to 35 days following CCI surgery, subjects were placed in elevated observation chambers containing wire mesh floors and five applications of acetone (0.05 mL/application separated by approximately 5 minutes) were spritzed onto the plantar surface of the paw using a multidose syringe. An abrupt withdrawal or lifting of the paw was considered a positive response. The number of positive responses was recorded for each rat over the five trials. Following baseline withdrawal determinations, compounds of Formula (I) are administered in an appropriate vehicle, such as hydroxypropyl-β-cyclodextrin ([…]), methylcellulose, Methocel, 10% Solutol, or H2O, or the like, by the appropriate route, i.p. or p.o. The number of withdrawals were redetermined 1 to 3 h after compound administration. Results are presented as a percent inhibition of shakes, which was calculated for each subject as [1−(test compound withdrawals/pre-test withdrawals)]×100 and then averaged by treatment.

[2] = tested on: icilin-induced "wet-dog" shakes in Sprague Dawley rats; test: Reversal of icilin-induced "wet-dog" shakes in rats; assay type: in vivo; conditions: po; rat; 10 mg/kg p.o.; 1 h post-icilin
canine TRPM8 = target: T1, canine TRPM8 (Canis lupus familiaris, UniProt Q1A7N1); test: In vitro canine TRPM8 functional assay (icilin-induced intracellular Ca2+, FLIPR/FDSS);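 for all read-outs here: intracellular Ca2+ tracked with a Ca2+-sensitive fluorescent dye, compound applied 5 min before icilin was added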; assay type: cell-based; conditions: HEK293 cells stably expressing canine TRPM8; for inhibition at 0.2 µM: 0.200 μM compound, icilin challenge (~80% maximal response), read-out: % Inh. @ 0.200 μM; for IC50: icilin challenge, eight-point dose-response
T1 construct: expressed in transfected cells
T1 sequence (Q1A7N1 1-1104): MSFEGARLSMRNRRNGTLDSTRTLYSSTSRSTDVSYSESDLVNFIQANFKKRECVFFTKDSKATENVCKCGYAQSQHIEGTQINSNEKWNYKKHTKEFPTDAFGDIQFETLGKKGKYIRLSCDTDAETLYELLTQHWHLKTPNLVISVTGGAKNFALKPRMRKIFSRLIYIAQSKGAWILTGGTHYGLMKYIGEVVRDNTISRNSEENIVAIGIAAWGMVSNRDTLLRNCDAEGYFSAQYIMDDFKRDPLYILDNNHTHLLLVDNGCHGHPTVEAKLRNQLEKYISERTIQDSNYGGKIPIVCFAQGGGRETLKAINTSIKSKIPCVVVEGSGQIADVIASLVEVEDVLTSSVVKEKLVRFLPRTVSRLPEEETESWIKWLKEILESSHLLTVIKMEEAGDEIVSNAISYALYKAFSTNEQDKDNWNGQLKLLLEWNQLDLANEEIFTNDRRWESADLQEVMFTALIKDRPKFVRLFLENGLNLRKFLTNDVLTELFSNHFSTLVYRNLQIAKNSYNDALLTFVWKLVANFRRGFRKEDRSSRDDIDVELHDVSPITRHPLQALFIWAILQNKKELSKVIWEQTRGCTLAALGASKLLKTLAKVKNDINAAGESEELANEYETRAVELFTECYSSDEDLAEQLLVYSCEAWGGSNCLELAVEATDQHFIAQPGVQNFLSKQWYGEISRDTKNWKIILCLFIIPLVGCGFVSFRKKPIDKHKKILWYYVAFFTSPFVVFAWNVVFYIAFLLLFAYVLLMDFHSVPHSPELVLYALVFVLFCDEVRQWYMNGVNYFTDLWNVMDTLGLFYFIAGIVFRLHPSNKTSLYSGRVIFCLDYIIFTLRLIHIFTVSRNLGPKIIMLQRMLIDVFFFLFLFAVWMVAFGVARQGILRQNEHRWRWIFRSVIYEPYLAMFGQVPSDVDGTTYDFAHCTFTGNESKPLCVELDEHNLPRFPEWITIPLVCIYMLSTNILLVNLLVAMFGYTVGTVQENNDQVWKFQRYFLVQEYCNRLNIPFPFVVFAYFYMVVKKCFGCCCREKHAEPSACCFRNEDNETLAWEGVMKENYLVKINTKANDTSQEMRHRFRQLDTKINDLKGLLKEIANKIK

SMILES	inhibition in vivo at 10 mg/kg [1] [%]	inhibition in vivo at 10 mg/kg [2] [%]	inhibition at 0.2 µM (canine TRPM8) [%]	IC50 (canine TRPM8) [nM]
FC(F)(F)c1ccccc1-c1ccc2nc(C3=NOC4(CCCCC4)C3)[nH]c2c1 [Cpd 1, 3-[5-(2-Trifluoromethyl-phenyl)-1H-benzimidazol-2-yl]-1-oxa-2-aza-spiro[4.5]dec-2-ene]	65	–	–	–
FC(F)(F)Oc1ccccc1-c1ccc2[nH]c(C3=NOC4(CCCCC4)C3)nc2c1 [Cpd 7, 3-[5-(2-Trifluoromethoxy-phenyl)-1H-benzimidazol-2-yl]-1-oxa-2-aza-spiro[4.5]dec-2-ene hydrochloride]	83	> 96	–	–
Fc1cccc(OC(F)(F)F)c1-c1ccc2[nH]c(C3=NOC4(CCCCC4)C3)nc2c1 [Cpd 8, 3-[5-(2-Fluoro-6-trifluoromethoxy-phenyl)-1H-benzimidazol-2-yl]-1-oxa-2-aza-spiro[4.5]dec-2-ene hydrochloride]	–	> 96	–	–
FC(F)(F)c1ccccc1-c1cc(Cl)c2[nH]c(C3=NOC4(CCCCC4)C3)nc2c1 [Cpd 16, 3-[7-Chloro-5-(2-trifluoromethylphenyl)-1H-benzimidazol-2-yl]-1-oxa-2-aza-spiro[4.5]dec-2-ene hydrochloride]	82.5	> 99	–	–
FC(F)(F)c1ccccc1-c1cc(C(F)(F)F)c2[nH]c(C3=NOC4(CCCCC4)C3)nc2c1 [Cpd 27, 3-[7-Trifluoromethyl-5-(2-trifluoromethyl-phenyl)-1H-benzimidazol-2-yl]-1-oxa-2-aza-spiro[4.5]dec-2-ene hydrochloride]	83	> 99	100	–
CC1C(c2nc3cc(-c4ccccc4C(F)(F)F)cc(C(F)(F)F)c3[nH]2)=NOC12CCCCC2 (centres unmarked) [Cpd 28, 4-Methyl-3-[7-trifluormethyl-5-(2-trifluoromethyl-phenyl)-1H-benzimidazol-2-yl]-1-oxa-2-aza-spiro[4.5]dec-2-ene hydrochloride]	–	30	101	1.1
FC(F)(F)c1cc(-c2ccccc2Cl)cc2nc(C3=NOC4(CCCCC4)C3)[nH]c12 [Cpd 30, 3-[5-(2-Chloro-phenyl)-7-trifluoromethyl-1H-benzimidazol-2-yl]-1-oxa-2-aza-spiro[4.5]dec-2-ene hydrochloride]	62.9	> 98	97	–
FC(F)(F)Oc1ccccc1-c1cc(C(F)(F)F)c2[nH]c(C3=NOC4(CCCCC4)C3)nc2c1 [Cpd 51, 3-[5-(2-Trifluoromethoxyphenyl)-7-trifluoromethyl-1H-benzimidazol-2-yl]-1-oxa-2-aza-spiro[4.5]dec-2-ene hydrochloride]	57.1	> 98	97	–
Fc1ccccc1-c1cc(C(F)(F)F)c2[nH]c(C3=NOC4(CCCCC4)C3)nc2c1 [Cpd 53, 3-[5-(2-Fluorophenyl)-7-trifluoromethyl-1H-benzimidazol-2-yl]-1-oxa-2-aza-spiro[4.5]dec-2-ene hydrochloride]	42.9	> 98	97	–
FC(F)(F)c1ccccc1-c1cnc2[nH]c(C3=NOC4(CCCCC4)C3)nc2c1 [Cpd 58, 2-(1-Oxa-2-aza-spiro[4.5]dec-2-en-3-yl)-6-(2-trifluoromethyl-phenyl)-3H-imidazo[4,5-b]pyridine hydrochloride]	–	–	101	2
